According to ChEMBL document CHEMBL5096202, “Carbon-silicon switch led to the discovery of novel synthetic cannabinoids with therapeutic effects in a mouse model of multiple sclerosis” (Eur J Med Chem, 2021):
pEC50, pKi: −log10 of the molar value. The source made the active and inactive calls. The calls are words filed in the database; no cut-off is given here.

Key:
[1] = molecular target: T1, Cannabinoid receptor 1 (Homo sapiens, UniProt P21554); test: Displacement of [3H]-CP55940 from recombinant human CB1 receptor expressed in CHO cells assessed as inhibition constant incubated for 120 mins by radioligand binding assay; format: cell-based
T1 sequence (P21554 whole entry): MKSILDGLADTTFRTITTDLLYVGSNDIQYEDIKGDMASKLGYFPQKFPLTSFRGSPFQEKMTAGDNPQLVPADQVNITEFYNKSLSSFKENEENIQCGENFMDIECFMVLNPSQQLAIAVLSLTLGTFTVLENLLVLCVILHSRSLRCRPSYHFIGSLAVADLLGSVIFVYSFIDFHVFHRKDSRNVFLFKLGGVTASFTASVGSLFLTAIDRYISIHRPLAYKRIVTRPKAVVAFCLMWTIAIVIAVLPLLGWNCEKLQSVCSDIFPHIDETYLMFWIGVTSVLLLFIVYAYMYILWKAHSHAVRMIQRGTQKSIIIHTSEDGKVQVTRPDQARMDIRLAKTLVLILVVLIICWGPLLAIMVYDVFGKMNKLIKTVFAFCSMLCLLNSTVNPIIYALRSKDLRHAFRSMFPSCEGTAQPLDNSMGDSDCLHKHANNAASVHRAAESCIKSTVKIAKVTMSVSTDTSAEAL

[2] = molecular target: T2, Cannabinoid receptor 2 (Homo sapiens, UniProt P34972); test: Agonist activity at recombinant human CB2 receptor expressed in CHO cells assessed as inhibition of forskolin-induced cAMP accumulation by measuring maximum efficacy preincubated for 15 mins followed by forskolin stimulation and measured after 15 mins by HTRF assay relative to control; format: functional, cell-based; conditions: filed as agonist, time 30.0 min
T2 sequence (P34972 whole entry): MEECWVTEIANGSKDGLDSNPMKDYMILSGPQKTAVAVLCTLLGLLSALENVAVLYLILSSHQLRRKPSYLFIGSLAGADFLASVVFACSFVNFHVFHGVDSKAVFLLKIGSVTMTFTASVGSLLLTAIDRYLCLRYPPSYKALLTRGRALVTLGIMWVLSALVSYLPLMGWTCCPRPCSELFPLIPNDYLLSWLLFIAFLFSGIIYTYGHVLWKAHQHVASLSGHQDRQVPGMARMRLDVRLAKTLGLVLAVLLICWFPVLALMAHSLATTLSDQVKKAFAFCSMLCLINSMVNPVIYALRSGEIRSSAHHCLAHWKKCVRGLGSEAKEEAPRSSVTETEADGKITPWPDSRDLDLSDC

[3] = molecular target: T2, Cannabinoid receptor 2; test: Displacement of [3H]-CP55940 from recombinant human CB2 receptor expressed in CHO cells assessed as inhibition constant incubated for 120 mins by radioligand binding assay; format: cell-based
[4] = molecular target: T1, Cannabinoid receptor 1; test: Agonist activity at recombinant human CB1 receptor expressed in CHO cells assessed as inhibition of forskolin-induced cAMP accumulation preincubated for 15 mins followed by forskolin stimulation and measured after 15 mins by HTRF assay; format: functional, cell-based
[5] = molecular target: T1, Cannabinoid receptor 1; test: Agonist activity at recombinant human CB1 receptor expressed in CHO cells assessed as inhibition of forskolin-induced cAMP accumulation by measuring maximum efficacy preincubated for 15 mins followed by forskolin stimulation and measured after 15 mins by HTRF assay relative to control; format: functional, cell-based; conditions: filed as agonist, time 30.0 min
[6] = molecular target: T2, Cannabinoid receptor 2; test: Agonist activity at recombinant human CB2 receptor expressed in CHO cells assessed as inhibition of forskolin-induced cAMP accumulation preincubated for 15 mins followed by forskolin stimulation and measured after 15 mins by HTRF assay; format: functional, cell-based
[7] = Metabolic stability in human liver microsomes assessed as half life; format: ADME, Microsome
[8] = Metabolic stability in rat liver microsomes assessed as half life; format: ADME, Microsome
[9] = Metabolic stability in rat liver microsomes assessed as intrinsic clearance; format: ADME, Microsome; conditions: read-out: CLH
[10] = Metabolic stability in mouse liver microsomes assessed as half life; format: ADME, Microsome
[11] = Metabolic stability in mouse liver microsomes assessed as intrinsic clearance; format: ADME, Microsome; conditions: read-out: CLH
[12] = Metabolic stability in human liver microsomes assessed as intrinsic clearance; format: ADME, Microsome; conditions: read-out: CLH
[13] = Toxicity in MOG (35 to 55 residues)/pertussis toxin-induced experimental autoimmune encephalomyelitis C57BL/6 mouse model assessed as side effects at 10 to 30 mg/kg, ip administered once daily starting from day 3 to day 28; format: organism-based; conditions: in vivo, 600 h, dose 10-30 mg/kg, time 25 day
[14] = Half life in C57BL/6 mouse at 10 mg/kg, ip measured upto 24 hrs by LC-MS/MS analysis; format: ADME, organism-based; conditions: in vivo
[15] = system: Mus musculus; test: (§1) Antiinflammatory activity in MOG (35 to 55 residues)/pertussis toxin-induced experimental autoimmune encephalomyelitis C57BL/6 mouse model assessed as reduction of inflammatory cell infiltration in transverse section of lumbar spinal cords at 10 to 30 mg/kg, ip administered starting from day 3 to day 28 by LFB staining based analysis; format: functional, organism-based; conditions: dose 10-30 mg/kg, time 25.0 day
[16] = system: Mus musculus; test: Antiinflammatory activity in MOG (35 to 55 residues)/pertussis toxin-induced experimental autoimmune encephalomyelitis C57BL/6 mouse model assessed as reduction in clinical score administered intraperitoneally starting from day 3 to day 28; format: functional, organism-based; conditions: route ip, time 25.0 day, DDE = dose-dependent effect
[17] = AUClast in C57BL/6 mouse at 10 mg/kg, ip measured upto 24 hrs by LC-MS/MS analysis; format: ADME, organism-based; parameters: time < 24 hrs, dose 10 mg/kg, route ip; conditions: in vivo
[18] = system: Mus musculus; test: Antiinflammatory activity in MOG (35 to 55 residues)/pertussis toxin-induced experimental autoimmune encephalomyelitis C57BL/6 mouse model assessed as reduction in infarcted brain proportion at 10 to 30 mg/kg, ip administered starting from day 3 to day 28 by TTC staining based analysis relative to control; format: functional; parameters: scale not given: the % may be the effect or the level left; conditions: dose 10-30 mg/kg, time 25 day
[19] = system: Mus musculus; test: as §1, with “H&E” for “LFB”; format: functional, organism-based; conditions: dose 10-30 mg/kg, time 25.0 day
[20] = AUCinfinity in C57BL/6 mouse at 10 mg/kg, ip measured upto 24 hrs by LC/MS-MS analysis; format: ADME, organism-based; parameters: dose 10 mg/kg, time < 24 hrs, route ip; conditions: in vivo
[21] = Toxicity in MOG (35 to 55 residues)/pertussis toxin-induced experimental autoimmune encephalomyelitis C57BL/6 mouse model assessed as body weight loss at 10 to 30 mg/kg, ip administered starting from day 3 to day 28; format: organism-based; conditions: in vivo, 600 h, dose 10-30 mg/kg, time 25 day
[22] = system: Mus musculus; test: as §1, with “in demyelination” for “of inflammatory cell infiltration”, “H&E” for “LFB”; format: functional, organism-based; conditions: dose 10-30 mg/kg, time 25.0 day
[23] = Toxicity in MOG (35 to 55 residues)/pertussis toxin-induced experimental autoimmune encephalomyelitis C57BL/6 mouse model assessed as tolerance at 30 mg/kg, ip administered once daily starting from day 3 to day 28; format: organism-based; conditions: in vivo, 600 h, time 25 day
[24] = system: Mus musculus; test: as §1, with “in demyelination” for “of inflammatory cell infiltration”; format: functional, organism-based; conditions: dose 10-30 mg/kg, time 25.0 day
[25] = Tmax in C57BL/6 mouse at 10 mg/kg, ip measured upto 24 hrs by LC-MS/MS analysis; format: ADME, organism-based; conditions: in vivo
[26] = Cmax in C57BL/6 mouse at 10 mg/kg, ip measured upto 24 hrs by LC-MS/MS analysis; format: ADME, organism-based; parameters: dose 10 mg/kg, time < 24 hrs, route ip; conditions: in vivo
[27] = Toxicity in MOG (35 to 55 residues)/pertussis toxin-induced experimental autoimmune encephalomyelitis C57BL/6 mouse model assessed as motor defects at 30 mg/kg, ip administered once daily starting from day 3 to day 28; format: organism-based; conditions: in vivo, 600 h, time 25 day

CCCC[Si](C)(C)c1cc(O)c2c(c1)OC(C)(C)c1ccc(C)cc1-2
pKi [1]: 8.29 | Emax [2]: 90.4% | pKi [3]: 8.30 | pEC50 [4]: 6.40 | Emax [5]: 102% | pEC50 [6]: 6.57

CCCCCC[Si](C)(C)c1cc(O)c(C2CCCCCC2)c(O)c1
pKi [1]: 7.75 | Emax [2]: 92% | pKi [3]: 8.19 | pEC50 [4]: 6.89 | Emax [5]: 98% | pEC50 [6]: 6.78

CC[Si](C)(C)c1cc(O)c2c(c1)OC(C)(C)[C@@H]1CCC(C)=C[C@@H]21
pKi [1]: 7.71 | Emax [2]: 84.8% | pKi [3]: 5.97 | pEC50 [6]: 6.45

CCCC[Si](C)(C)c1cc(O)c2c(c1)OC(C)(C)[C@@H]1CC=C(CO)C[C@@H]21
pKi [1]: 8.64 | Emax [2]: 91.2% | pKi [3]: 9.19 | pEC50 [4]: 7.45 | Emax [5]: 102% | pEC50 [6]: 5.08

CCCCCC[Si](C)(C)c1cc(O)c(C2CCCCC2)c(O)c1
pKi [1]: 7.75 | Emax [2]: 95.5% | pKi [3]: 8.04 | pEC50 [4]: 6.34 | Emax [5]: 98.6% | pEC50 [6]: 7.26

CCCC[Si](C)(C)c1cc(O)c(C2CCCCC2)c(O)c1
pKi [1]: 6.62 | Emax [2]: 95.2% | pKi [3]: 7.50 | pEC50 [6]: 7.60

CCCC[Si](C)(C)c1cc(O)c(C2CCCC2)c(OC)c1
pKi [1]: 6.22 | Emax [2]: 85.4% | pKi [3]: 6.04 | pEC50 [6]: 6.00

CCCCCC[Si](C)(C)c1cc(O)c(C2CCCC2)c(O)c1
pKi [1]: 7.19 | Emax [2]: 104% | pKi [3]: 7.37 | pEC50 [6]: 6.35

CCCC[Si](C)(C)c1cc(O)c2c(c1)OC(C)(C)[C@@H]1CCC(C)=C[C@@H]21
pKi [1]: 8.63 | Emax [2]: 95.4% | pKi [3]: 8.83 | pEC50 [4]: 7.86 | Emax [5]: 99.6% | pEC50 [6]: 7.19

CCCC[Si](C)(C)c1cc(O)c(C2CCCCCC2)c(O)c1
pKi [1]: 6.85 | Emax [2]: 93.4% | pKi [3]: 7.20 | pEC50 [4]: 6.08 | Emax [5]: 65% | pEC50 [6]: 7.07

CCCCCCC(C)(C)c1cc(OC)c([C@H]2C=C(CO)[C@H]3C[C@@H]2C3(C)C)c(OC)c1
half-life [7]: 20.4 min | half-life [8]: 18.2 min | CLint scaled [9]: 137 mL/min/kg | Emax [2]: 101% | half-life [10]: 7.84 min | CLint scaled [11]: 696 mL/min/kg | CLint scaled [12]: 85.4 mL/min/kg

CCCCCC[Si](C)(C)c1cc(OC)c([C@H]2C=C(CO)[C@H]3C[C@@H]2C3(C)C)c(OC)c1
half-life [7]: 49.7 min | Activity [13]: Non-Toxic | half-life [8]: 58.9 min | CLint scaled [9]: 42.1 mL/min/kg | pKi [1]: 5.54 | half-life [14]: 407 min | Activity [15]: Active | Activity [16]: Dde | Emax [2]: 90.6% | AUC(0-t) at 24 h [17]: 11600 ng·h/mL | Activity [18]: 90% | half-life [10]: 31.5 min | Activity [19]: Active | AUC(0-inf) [20]: 12300 ng·h/mL | Activity [21]: Non-Toxic | pKi [3]: 5.31 | CLint scaled [11]: 173 mL/min/kg | Activity [22]: Active | CLint scaled [12]: 35 mL/min/kg | Activity [23]: Non-Toxic | Activity [24]: Active | Tmax [25]: 120 min | Cmax [26]: 2520 ng/mL | Activity [27]: Non-Toxic | pEC50 [6]: 6.34

CCCCCC[Si](C)(C)c1cc(O)c(C2CCCC2)c(OC)c1
pKi [1]: 7.13 | Emax [2]: 89.8% | pKi [3]: 6.78 | pEC50 [4]: 6.15 | Emax [5]: 81.6% | pEC50 [6]: 6.63
